Data taken from PubChem BioAssay AID200 (DTP/NCI, 2004).
Where “and” joins values, the source holds several entries; their conditions need not be identical. Equal values may be shown once. Toxic doses and inconclusive results are not listed. Where a SMILES comes first, the peptide text is derived from it. [ ]: non-standard residue; d: D form. The star is where a group is joined. Cbz = O=C(OCc1ccccc1)*; Nva = CCC[CH](N)C(=O)O

Tested on: B6C3F1 mice, B16 melanoma ip, median survival T/C
Assay: NCI In Vivo Anticancer Drug Screen. Data for tumor model B16 Melanoma (intraperitoneal) in B6C3F1 mice
Conditions: endpoint: median survival time, higher = longer survival
Outline: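 Readout: survival or tumor size in treated mice relative to vehicle controls (T/C). Model uses transplantable tumors grown in mice.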

[1] = dose: 25.0 mg/kg/injection, schedule: Q01DX009 (ip), vehicle: Klucel (hydroxypropylcellulose) (HPC)
[2] = dose: 12.5 mg/kg/injection, schedule: Q01DX009 (ip), vehicle: Klucel (hydroxypropylcellulose) (HPC)
[3] = dose: 50.0 mg/kg/injection, schedule: Q01DX009 (ip), vehicle: Klucel (hydroxypropylcellulose) (HPC)
[4] = dose: 100.0 mg/kg/injection, schedule: Q01DX009 (ip), vehicle: Klucel (hydroxypropylcellulose) (HPC)
[5] = dose: 200.0 mg/kg/injection, schedule: Q01DX009 (ip), vehicle: Klucel (hydroxypropylcellulose) (HPC)

Cc1ncc(CO)c(CO)c1O
T/C (dose: 50.0 mg/kg/injection, schedule: Q03HX009 (ip), vehicle: suspension in saline): 106 % of control | T/C (dose: 100.0 mg/kg/injection, schedule: Q03HX009 (ip), vehicle: suspension in saline): 102 % of control | T/C (dose: 200.0 mg/kg/injection, schedule: Q03HX009 (ip), vehicle: suspension in saline): 102 % of control | T/C (dose: 400.0 mg/kg/injection, schedule: Q03HX009 (ip), vehicle: suspension in saline): 98 % of control | T/C (dose: 800.0 mg/kg/injection, schedule: Q03HX009 (ip), vehicle: suspension in saline): 96 % of control

CCC(=O)OCC1OC(n2cnc3c(=S)nc(N)[nH]c32)C(OC(=O)CC)C1OC(=O)CC (stereo not drawn)
T/C [1]: 86 % of control

C[Si](C)(C)O/C=C1/CCOC1=O
T/C [2]: 104 % of control | T/C [1]: 93 % of control | T/C [3]: 95 % of control | T/C [4]: 95 % of control | T/C [5]: 106 % of control

Nc1nc(-c2ccc(S(=O)(=O)O)cc2)cc(=O)[nH]1
T/C (dose: 3.31 mg/kg/injection, schedule: Q01DX009 (ip), vehicle: saline): 100 % of control | T/C (dose: 6.62 mg/kg/injection, schedule: Q01DX009 (ip), vehicle: saline): 105 % of control | T/C (dose: 13.25 mg/kg/injection, schedule: Q01DX009 (ip), vehicle: saline): 105 % of control | T/C (dose: 26.5 mg/kg/injection, schedule: Q01DX009 (ip), vehicle: saline): 96 % of control and 104 % of control | T/C (dose: 53.0 mg/kg/injection, schedule: Q01DX009 (ip), vehicle: saline): 104 % of control | T/C (dose: 106.0 mg/kg/injection, schedule: Q01DX009 (ip), vehicle: saline): 110 % of control

C=C1C(=O)O[C@@H]2[C@H]3O[C@]3(C)CCC=C(C)CC[C@@H]12
T/C (dose: 6.25 mg/kg/injection, schedule: Q01DX009 (ip), vehicle: Klucel (hydroxypropylcellulose) (HPC)): 91 % of control | T/C [2]: 97 % of control | T/C [1]: 98 % of control | T/C [3]: 108 % of control

O=C/C(Cl)=C(/Cl)C(=O)O
T/C (dose: 1.25 mg/kg/injection, schedule: Q01DX009 (ip), vehicle: saline with Tween-80): 99 % of control | T/C (dose: 2.5 mg/kg/injection, schedule: Q01DX009 (ip), vehicle: saline with Tween-80): 86 % of control | T/C (dose: 5.0 mg/kg/injection, schedule: Q01DX009 (ip), vehicle: saline with Tween-80): 89 % of control | T/C (dose: 10.0 mg/kg/injection, schedule: Q01DX009 (ip), vehicle: saline with Tween-80): 92 % of control | T/C (dose: 20.0 mg/kg/injection, schedule: Q01DX009 (ip), vehicle: saline with Tween-80): 102 % of control

CCCC(NC(=O)OCc1ccccc1)C(=O)NC(CO)C(=O)O (stereo not drawn) (Cbz-[Nva]-Ser-OH; configuration not given here)
T/C [4]: 102 % of control | T/C [5]: 100 % of control | T/C (dose: 400.0 mg/kg/injection, schedule: Q01DX009 (ip), vehicle: Klucel (hydroxypropylcellulose) (HPC)): 103 % of control

COCCCNC1=C(C#N)C(=O)NC(c2cccc([N+](=O)[O-])c2)S1 (stereo not drawn)
T/C (dose: 3.13 mg/kg/injection, schedule: Q01DX009 (ip), vehicle: saline with Tween-80): 112 % of control and 98 % of control | T/C (dose: 6.25 mg/kg/injection, schedule: Q01DX009 (ip), vehicle: saline with Tween-80): 91 % of control and 96 % of control | T/C (dose: 50.0 mg/kg/injection, schedule: Q01DX009 (ip), vehicle: saline with Tween-80): 94 % of control and 101 % of control (2×) | T/C (dose: 100.0 mg/kg/injection, schedule: Q01DX009 (ip), vehicle: saline with Tween-80): 111 % of control and 98 % of control | T/C (dose: 200.0 mg/kg/injection, schedule: Q01DX009 (ip), vehicle: saline with Tween-80): 111 % of control | T/C (dose: 400.0 mg/kg/injection, schedule: Q01DX009 (ip), vehicle: saline with Tween-80): 87 % of control

CCCCCCCCCCCCCCCCN(CC)CC
T/C (dose: 2.5 mg/kg/injection, schedule: Q01DX009 (ip), vehicle: saline): 99 % of control | T/C (dose: 5.0 mg/kg/injection, schedule: Q01DX009 (ip), vehicle: saline): 97 % of control | T/C (dose: 10.0 mg/kg/injection, schedule: Q01DX009 (ip), vehicle: saline): 90 % of control

CC/C(C)=C1\OC(=O)C(C)C(O)C(Cc2cccnc2)NC(=O)C(NC(=O)c2ncccc2O)C(C)OC1=O (stereo not drawn)
T/C (dose: 0.75 mg/kg/injection, schedule: Q01DX009 (ip), vehicle: saline with Tween-80): 113 % of control | T/C (dose: 1.5 mg/kg/injection, schedule: Q01DX009 (ip), vehicle: saline with Tween-80): 107 % of control | T/C (dose: 3.0 mg/kg/injection, schedule: Q01DX009 (ip), vehicle: saline with Tween-80): 123 % of control | T/C (dose: 6.0 mg/kg/injection, schedule: Q01DX009 (ip), vehicle: saline with Tween-80): 86 % of control

COC(=O)C12OCC34C(CC5C(C)=CC(=O)C(O)C5(C)C3C(O)C1O)OC(=O)C(OC(=O)CC(C)C)C24 (stereo not drawn)
T/C (dose: 0.25 mg/kg/injection, schedule: Q01DX009 (ip), vehicle: saline + alcohol): 164 % of control | T/C (dose: 0.5 mg/kg/injection, schedule: Q01DX009 (ip), vehicle: saline + alcohol): 180 % of control | T/C (dose: 1.0 mg/kg/injection, schedule: Q01DX009 (ip), vehicle: saline + alcohol): 164 % of control | T/C (dose: 2.0 mg/kg/injection, schedule: Q01DX009 (ip), vehicle: saline + alcohol): 159 % of control

Nc1ccn(C2OC(CO)C(O)C2O)c(=O)n1 (stereo not drawn)
T/C (dose: 25.0 mg/kg/injection, schedule: Q01DX009 (ip), vehicle: saline): 120 % of control | T/C (dose: 2400.0 mg/kg/injection, schedule: Q01DX009 (ip), vehicle: saline with Tween-80): 110 % of control
